Key:
[1] = target: T1, Potassium voltage-gated channel subfamily A member 3 (Homo sapiens, UniProt P22001); assay: cell-based; parameters: species or system Blood
[2] = target: T1, Potassium voltage-gated channel subfamily A member 3; assay type: cell-based, CHO-K1
[3] = target: T1, Potassium voltage-gated channel subfamily A member 3; parameters: species or system Blood

T1 sequence (P22001 whole entry): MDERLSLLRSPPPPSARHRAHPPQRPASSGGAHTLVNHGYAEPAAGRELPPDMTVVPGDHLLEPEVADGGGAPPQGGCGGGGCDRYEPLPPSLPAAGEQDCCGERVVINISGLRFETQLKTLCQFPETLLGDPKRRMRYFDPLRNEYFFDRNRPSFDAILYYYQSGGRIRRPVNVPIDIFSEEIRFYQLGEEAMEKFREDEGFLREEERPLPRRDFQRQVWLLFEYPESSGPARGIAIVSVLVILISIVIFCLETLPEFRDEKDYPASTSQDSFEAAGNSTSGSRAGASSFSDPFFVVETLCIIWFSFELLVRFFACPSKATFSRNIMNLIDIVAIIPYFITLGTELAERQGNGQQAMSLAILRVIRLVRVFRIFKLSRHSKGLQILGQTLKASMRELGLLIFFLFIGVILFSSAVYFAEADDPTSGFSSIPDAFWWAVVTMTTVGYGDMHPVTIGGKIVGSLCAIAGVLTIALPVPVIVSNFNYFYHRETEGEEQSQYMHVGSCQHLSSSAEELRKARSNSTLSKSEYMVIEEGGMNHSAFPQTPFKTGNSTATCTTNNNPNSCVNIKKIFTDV

Row | Compound | IC50 [1] [nM] | IC50 [2] [nM] | IC50 [3] [nM]
1 | CC[C@H](C)[C@@H]1NC(=O)[C@@H](NC(=O)[C@H](CO)NC(=O)[C@H](C)N)CSSC[C@@H](C(=O)O)NC(=O)[C@H]([C@@H](C)O)NC(=O)CNC(=O)[C@@H]2CSSC[C@@H]3NC(=O)[C@H](CCC(N)=O)NC(=O)[C@H](Cc4ccccc4)NC(=O)[C@H](C)NC(=O)[C@H]([C@@H](C)O)NC(=O)[C@H](CSSC[C@H](NC(=O)[C@H](Cc4ccccc4)NC(=O)[C@H](CO)NC(=O)[C@H](CC(C)C)NC(=O)[C@H](CCCNC(=N)N)NC(=O)[C@H](Cc4ccc(O)cc4)NC(=O)[C@H](CCCCN)NC(=O)[C@H](CCSC)NC(=O)[C@H](CO)NC(=O)[C@H](Cc4cnc[nH]4)NC(=O)[C@H](CCCCN)NC3=O)C(=O)N[C@@H](CCCNC(=N)N)C(=O)N[C@@H](CCCCN)C(=O)N[C@@H]([C@@H](C)O)C(=O)N2)NC(=O)[C@H](CCCNC(=N)N)NC(=O)[C@H](CO)NC(=O)[C@H](CCCCN)NC(=O)[C@@H]2CCCN2C(=O)[C@H]([C@@H](C)CC)NC(=O)[C@H]([C@@H](C)O)NC(=O)[C@H](CC(=O)O)NC1=O | 0.061 | 0.166 | –
2 | CC[C@H](C)[C@@H]1NC(=O)[C@@H](NC(=O)[C@H](CO)NC(=O)[C@@H](N)CCCNC(=N)N)CSSC[C@@H](C(=O)O)NC(=O)[C@H]([C@@H](C)O)NC(=O)CNC(=O)[C@@H]2CSSC[C@@H]3NC(=O)[C@H](CCC(N)=O)NC(=O)[C@H](Cc4ccccc4)NC(=O)[C@H](C)NC(=O)[C@H]([C@@H](C)O)NC(=O)[C@H](CSSC[C@H](NC(=O)[C@H](Cc4ccccc4)NC(=O)[C@H](CO)NC(=O)[C@H](CC(C)C)NC(=O)[C@H](CCCNC(=N)N)NC(=O)[C@H](Cc4ccc(O)cc4)NC(=O)[C@H](CCCCN)NC(=O)[C@H](CCSC)NC(=O)[C@H](CO)NC(=O)[C@H](Cc4cnc[nH]4)NC(=O)[C@H](CCCCN)NC3=O)C(=O)N[C@@H](CCCNC(=N)N)C(=O)N[C@@H](CCCNC(=N)N)C(=O)N[C@@H]([C@@H](C)O)C(=O)N2)NC(=O)[C@H](CCCNC(=N)N)NC(=O)[C@H](CO)NC(=O)[C@H](CCCCN)NC(=O)[C@@H]2CCCN2C(=O)[C@H]([C@@H](C)CC)NC(=O)[C@H]([C@@H](C)O)NC(=O)[C@H](CC(=O)O)NC1=O | – | 0.038 | 0.058
3 | CC[C@H](C)[C@@H]1NC(=O)[C@@H](NC(=O)[C@H](CO)NC(=O)[C@@H](N)CCCNC(=N)N)CSSC[C@@H](C(=O)O)NC(=O)[C@H]([C@@H](C)O)NC(=O)CNC(=O)[C@@H]2CSSC[C@@H]3NC(=O)[C@H](CCN)NC(=O)[C@H](Cc4ccccc4)NC(=O)[C@H](C)NC(=O)[C@H]([C@@H](C)O)NC(=O)[C@H](CSSC[C@H](NC(=O)[C@H](Cc4ccccc4)NC(=O)[C@H](CO)NC(=O)[C@H](CC(C)C)NC(=O)[C@H](CCCNC(=N)N)NC(=O)[C@H](Cc4ccc(O)cc4)NC(=O)[C@H](CCCCN)NC(=O)[C@H](CCSC)NC(=O)[C@H](CO)NC(=O)[C@H](Cc4c[nH]cn4)NC(=O)[C@H](CCCCN)NC3=O)C(=O)N[C@@H](CCCNC(=N)N)C(=O)N[C@@H](CCCCN)C(=O)N[C@@H]([C@@H](C)O)C(=O)N2)NC(=O)[C@H](CCCNC(=N)N)NC(=O)[C@H](CO)NC(=O)[C@H](CCCCN)NC(=O)[C@@H]2CCCN2C(=O)[C@H]([C@@H](C)CC)NC(=O)[C@H]([C@@H](C)O)NC(=O)[C@H](CC(=O)O)NC1=O | 0.086 | – | 0.223
4 | CC[C@H](C)[C@@H]1NC(=O)[C@@H](NC(=O)[C@H](CO)NC(=O)[C@@H](N)CCCNC(=N)N)CSSC[C@@H](C(=O)N[C@@H](C)C(=O)O)NC(=O)[C@H]([C@@H](C)O)NC(=O)CNC(=O)[C@@H]2CSSC[C@@H]3NC(=O)[C@H](CCCCN)NC(=O)[C@H](Cc4ccccc4)NC(=O)[C@H](C)NC(=O)[C@H]([C@@H](C)O)NC(=O)[C@H](CSSC[C@H](NC(=O)[C@H](Cc4ccccc4)NC(=O)[C@H](CO)NC(=O)[C@H](CC(C)C)NC(=O)[C@H](CCCNC(=N)N)NC(=O)[C@H](Cc4ccc(O)cc4)NC(=O)[C@H](CCCCN)NC(=O)[C@H](CCSC)NC(=O)[C@H](CO)NC(=O)[C@H](Cc4cnc[nH]4)NC(=O)[C@H](CCCCN)NC3=O)C(=O)N[C@@H](CCCNC(=N)N)C(=O)N[C@@H](CCCCN)C(=O)N[C@@H]([C@@H](C)O)C(=O)N2)NC(=O)[C@H](CCCNC(=N)N)NC(=O)[C@H](CO)NC(=O)[C@H](CCCCN)NC(=O)[C@@H]2CCCN2C(=O)[C@H]([C@@H](C)CC)NC(=O)[C@H]([C@@H](C)O)NC(=O)[C@H](CC(=O)O)NC1=O | 0.138 | – | 0.266
5 | CCCC[C@@H]1NC(=O)[C@H](CO)NC(=O)[C@H](Cc2c[nH]cn2)NC(=O)[C@H](CCCCN)NC(=O)[C@@H]2CSSC[C@@H]3NC(=O)[C@H]([C@@H](C)O)NC(=O)[C@H](CCCCN)NC(=O)[C@H](CCCNC(=N)N)NC(=O)[C@H](CSSC[C@H](NC(=O)[C@H](CCCNC(=N)N)NC(=O)[C@H](CO)NC(=O)[C@H](CCCCN)NC(=O)[C@@H]4CCCN4C(=O)[C@H]([C@@H](C)CC)NC(=O)[C@H]([C@@H](C)O)NC(=O)[C@H](CC(=O)O)NC(=O)[C@H]([C@@H](C)CC)NC(=O)[C@@H](NC(=O)[C@H](CO)NC(=O)[C@@H](N)CCCNC(=N)N)CSSC[C@@H](C(N)=O)NC(=O)[C@H]([C@@H](C)O)NC(=O)CNC3=O)C(=O)N[C@@H]([C@@H](C)O)C(=O)N[C@@H](C)C(=O)N[C@@H](Cc3ccccc3)C(=O)N[C@@H](CCCCN)C(=O)N2)NC(=O)[C@H](Cc2ccccc2)NC(=O)[C@H](CO)NC(=O)[C@H](CC(C)C)NC(=O)[C@H](CCCNC(=N)N)NC(=O)[C@H](Cc2ccc(O)cc2)NC(=O)[C@H](CCCCN)NC1=O | 0.823 | – | 1.1
6 | CC[C@H](C)[C@@H]1NC(=O)[C@@H](NC(=O)[C@H](CO)NC(=O)[C@@H](N)CCCNC(=N)N)CSSC[C@@H](C(=O)O)NC(=O)[C@H]([C@@H](C)O)NC(=O)CNC(=O)[C@@H]2CSSC[C@@H]3NC(=O)[C@H](CCC(N)=O)NC(=O)[C@H](Cc4ccccc4)NC(=O)[C@H](C)NC(=O)[C@H]([C@@H](C)O)NC(=O)[C@H](CSSC[C@H](NC(=O)[C@H](Cc4ccccc4)NC(=O)[C@H](CO)NC(=O)[C@H](CC(C)C)NC(=O)[C@H](CCCNC(=N)N)NC(=O)[C@H](Cc4ccc(O)cc4)NC(=O)[C@H](CCCCN)NC(=O)[C@H](CCSC)NC(=O)[C@H](CO)NC(=O)[C@H](Cc4cnc[nH]4)NC(=O)[C@H](CCCCN)NC3=O)C(=O)N[C@@H](CCCNC(=N)N)C(=O)N[C@@H](CCCCN)C(=O)N[C@@H]([C@@H](C)O)C(=O)N2)NC(=O)[C@H](CCCNC(=N)N)NC(=O)[C@H](Cc2cccc3ccccc23)NC(=O)[C@H](CCCCN)NC(=O)[C@@H]2CCCN2C(=O)[C@H]([C@@H](C)CC)NC(=O)[C@H]([C@@H](C)O)NC(=O)[C@H](CC(=O)O)NC1=O | – | 0.216 | 0.255

— ChEMBL document CHEMBL3608278 (J Med Chem, 2015)
